According to ChEMBL document CHEMBL1153460, “Potent aza-peptide derived inhibitors of HCV NS3 protease” (Bioorg Med Chem Lett, 2009):
Activity calls are given as the source filed them. The rule behind the calls is not given here. Starred links: 1 amine or outer side, 2 acyl side, 3 side chain; linkers in the order of their positions; H or OH if unused. Non-standard residues stand in square brackets, D forms with d. Residues, ends and D or L forms follow the SMILES beside them. *: point of attachment. Pro(4R-OPh) = O=C(O)[C@@H]1C[C@@H](Oc2ccccc2)CN1; NH(1R-phenylethyl) = C[C@@H](N*)c1ccccc1; azaNva = CCCN(N[*:1])C(=O)[*:2]; Aad = N[C@@H](CCCC(=O)O)C(=O)O; Tle = CC(C)(C)[C@H](N)C(=O)O

What was measured:
[1] = system: Hepatitis C virus; experiment: Antiviral activity against HCV by replicon-based cellular assay; assay type: functional, Hepacivirus hominis
[2] = Inhibition of HCV NS3 protease by continuous spectrophotometric assay; design: species or system Hepacivirus hominis
[3] = Selectivity ratio, Ki for human neutrophil elastase to Ki for HCV NS3 protease

| EC90 [1] [nM] | Ki [2] [nM] | EC90 ([1]; Hepacivirus hominis) | Ratio Ki [3] | SMILES |
| --- | --- | --- | --- | --- |
| 24000 | 3100 | – | – | CCCN(NC(=O)[C@@H]1[C@@H]2[C@H](CN1C(=O)[C@@H](NC(=O)N[C@H](CN1C(=O)C3CCC(C3)C1=O)C(C)(C)C)C(C)(C)C)C2(C)C)C(=O)OC(C)(C)C |
| 2400 | 950 | – | – | CCCN(NC(=O)[C@@H]1[C@@H]2[C@H](CN1C(=O)[C@@H](NC(=O)N[C@H](CN1C(=O)C3CCC(C3)C1=O)C(C)(C)C)C(C)(C)C)C2(C)C)C(=O)Nc1ccccc1 |
| – | 200 | inactive | – | C[C@@H](NC(=O)N(CC1CC1)NC(=O)[C@@H]1[C@@H]2[C@H](CN1C(=O)[C@@H](NC(=O)N[C@H](CN1C(=O)CC(C)(C)CC1=O)C(C)(C)C)C(C)(C)C)C2(C)C)c1ccccc1 |
| 350 | 14 | – | 2200 | CC(C)(C)NC(=O)N[C@H](C(=O)N1C[C@H]2[C@@H]([C@H]1C(=O)NC(CC1CCC1)C(=O)C(N)=O)C2(C)C)C(C)(C)C (stereo not given in full) [BOCEPREVIR] |
| 1100 | 250 | – | – | C[C@@H](NC(=O)N(CC1CC1)NC(=O)[C@@H]1[C@@H]2[C@H](CN1C(=O)[C@@H](NC(=O)N[C@H](CN1C(=O)C3CCC(C3)C1=O)C(C)(C)C)C(C)(C)C)C2(C)C)c1ccccc1 |
| – | 230 | inactive | – | CCCN(NC(=O)[C@@H]1[C@@H]2[C@H](CN1C(=O)[C@@H](NC(=O)N[C@H](CN(C)S(=O)(=O)c1cccnc1)C(C)(C)C)C1CCCCC1)C2(C)C)C(=O)N[C@H](C)c1ccccc1 |
| 8000 | 1600 | – | – | CCCN(NC(=O)[C@@H]1[C@@H]2[C@H](CN1C(=O)[C@@H](NC(=O)N[C@H](CN1C(=O)C3CCC(C3)C1=O)C(C)(C)C)C(C)(C)C)C2(C)C)C(=O)NC(C)(C)C |
| 3500 | 720 | – | – | CCCN(NC(=O)[C@@H]1[C@@H]2[C@H](CN1C(=O)[C@@H](NC(=O)N[C@H](CN1C(=O)C3CCC(C3)C1=O)C(C)(C)C)C(C)(C)C)C2(C)C)C(=O)CCc1ccccc1 |
| 250 | 32 | – | – | CCCN(NC(=O)[C@@H]1[C@@H]2[C@H](CN1C(=O)[C@@H](NC(=O)N[C@H](CN1C(=O)C3CCC(C3)C1=O)C(C)(C)C)C(C)(C)C)C2(C)C)C(=O)N[C@H](C)c1ccccc1 |
| 300 | 64 | – | 960 | CCCN(NC(=O)[C@@H]1[C@@H]2[C@H](CN1C(=O)[C@@H](NC(=O)N[C@H](CN1C(=O)CC(C)(C)CC1=O)C(C)(C)C)C(C)(C)C)C2(C)C)C(=O)N[C@H](C)c1ccccc1 |
| – | 78 | – | – | CCCN(NC(=O)[C@@H]1C[C@@H](Oc2ccccc2)CN1C(=O)[C@@H](NC(=O)[C@@H](NC(=O)[C@H](CCCC(=O)O)NC(=O)[C@H](CCCC(=O)O)NC(C)=O)C(C)C)C(C)(C)C)C(=O)N[C@H](C)c1ccccc1 (Ac-[Aad][Aad]V[Tle][Pro(4R-OPh)][azaNva]-{NH(1R-phenylethyl)}) |
| 16000 | 1300 | – | – | CCCN(NC(=O)[C@@H]1[C@@H]2[C@H](CN1C(=O)[C@@H](NC(=O)N[C@H](CN1C(=O)C3CCC(C3)C1=O)C(C)(C)C)C(C)(C)C)C2(C)C)C(=O)NC1CCCCC1 |
| 6000 | 750 | – | – | CCCN(NC(=O)[C@@H]1[C@@H]2[C@H](CN1C(=O)[C@@H](NC(=O)N[C@H](CN1C(=O)C3CCC(C3)C1=O)C(C)(C)C)C(C)(C)C)C2(C)C)C(=O)NC1CC1 |
| – | 52000 | inactive | – | CCCN(NC(=O)[C@@H]1[C@@H]2[C@H](CN1C(=O)[C@@H](NC(=O)N[C@H](CN1C(=O)C3CCC(C3)C1=O)C(C)(C)C)C(C)(C)C)C2(C)C)C(=O)c1ccccc1 |
| 15000 | 3000 | – | – | CCCN(NC(=O)[C@@H]1[C@@H]2[C@H](CN1C(=O)[C@@H](NC(=O)N[C@H](CN1C(=O)C3CCC(C3)C1=O)C(C)(C)C)C(C)(C)C)C2(C)C)C(=O)C1CC1 |
| – | 22000 | inactive | – | CCCN(NC(=O)[C@@H]1[C@@H]2[C@H](CN1C(=O)[C@@H](NC(=O)N[C@H](CN1C(=O)C3CCC(C3)C1=O)C(C)(C)C)C(C)(C)C)C2(C)C)C(C)=O |
| 700 | 110 | – | – | CCCN(NC(=O)[C@@H]1[C@@H]2[C@H](CN1C(=O)[C@@H](NC(=O)N[C@H](CN(C)S(C)(=O)=O)C(C)(C)C)C(C)(C)C)C2(C)C)C(=O)N[C@H](C)c1ccccc1 |
